The source of these data is US7384657B2, “Composition of natural herb extract for treating cardiovascular disease and its method of preparation thereof” (priority 2004, dated 2008).

A short description of one data set: solubility. The protocol: Matrine is also called matricaria. Its molecular formula is C15H24N2O and its molecular weight is 248.36. It has four isomers: α, β, γ, and δ isomers. α-matrine is the one commonly seen. It is a needle or rhombohedral crystal, having a melting point 76° C. and [α]D+39.1° (H2O).
Oxymatrine has a molecular formula C15H24N2O2 and a molecular weight 264.36. It is a colorless columnar crystal (Me2CO), melting point 162° C. (hydrate), 207° C. (anhydrate), [α]D+47.7° (C2H5OH). […] It can change to matrine through reaction with SO2.

Data set [1] is described as follows: pharmacokinetics of oxymatrine and matrine in mice.
The conditions of data set [2]: 100 mg/kg i.v. The protocol: Study of pharmacokinetics of Matrine is carried out. […] Rats are given intravenous injection of oxymatrine 100 mg/kg.
For data set [3] the following is noted: cited from earlier work.
[4] abbreviates: within 24 hours of intramuscular oxymatrine 100 mg/kg.

Where two headings read alike, the source gives them in different places.

As to `O=C1CCC[C@@H]2[C@H]3CCC[N+]4([O-])CCC[C@@H](CN12)[C@@H]34` (stereo partly shown) [Oxymatrine], the solubility entry in the data set “solubility” is “soluble in water, chloroform and ethanol, but nearly insoluble in ether, methyl ether and petroleum ether”. The “transformation in the gastrointestinal tract” value in data set [1] (stomach perfusion) is listed as “gradually transforms into matrine in the gastrointestinal tract”. In data set [1] (setting [4]), this molecule came in with an excretion of oxymatrine of 5.1%. Moreover, in data set [1] (setting [4]), the “matrine found in the emiction of urine” value was 20.6%. Moreover, the distribution and elimination entry in data set [2] is “distribution is wide and the elimination fast”. Besides, the LD50 in data set [3] (intramuscular injection) was 256.74 ± 573.6 mg/kg; in data set [3] (intravenous injection), 144.2 ± 22.8 mg/kg.

A word on the LD50: it is the dose at which mortality reaches 50%.
